US9125915B2, “Antitumor agent” (Mitsubishi Tanabe Pharma Corporation, priority 2007, dated 2015)
Read-outs that look alike come from different tables or passages of the source.

Experiments:
BRD4 = BRD4 (Homo sapiens (Human), UniProt O60885); test: Binding inhibitory test of acetylated histone H4 and BRD4 (TR-FRET); conditions: CHO cell lysate with Flag-BRD4, biotin-labeled acetylated histone H4 peptide
Experimental: An expression vector containing cDNA of BRD2, 3 and 4 added with Flag-tag was transfected to CHO cell, and a cell lysate was prepared 24 hr later. Binding of acetylated histone H4 and BRD was confirmed by a Time Resolved Fluorescence Resonance Energy Transfer (TR-FRET) method. To a 384-well white plate (manufactured by Coaster) were added 50 nmol/L biotin-labeled acetylated histone H4 peptide (manufactured by Upstate) and a serially diluted test compound.

MV4-11 = test: Growth suppressive activity test against cancer cells (WST-8), MV4-11; assay type: cell-based, human
Experimental: (§1) Using RPMI 1640 medium (manufactured by SIGMA) supplemented with 10% fetal bovine serum, human promyelocytic leukemia-derived cell line HL-60, human acute lymphoblastic leukemia-derived cell line MOLT4, human Burkitt's lymphoma-derived cell line Daudi, and human multiple myeloma-derived cell line RPMI-8226 were respectively cultured at 37° C., 5% CO2. In addition, using ISKOV medium (manufactured by SIGMA) supplemented with 10% fetal bovine serum, human chronic myeloid leukemia-derived cell line MV4-11 was cultured at 37° C., 5% CO2. Moreover, using DMEM/F-12 medium (manufactured by SIGMA) supplemented with 10% fetal bovine serum, human lung cancer cell-derived cell line EBC-1, human hepatocellular cancer-derived cell line Kim-1, human colorectal cancer-derived cell line HCT-116, human prostate cancer-derived cell line PC-3, human ovarian cancer-derived cell line A2780, and human osteosarcoma-derived cell line Saos2 were respectively cultured at 37° C., 5% CO2. These cells were plated on a 96 well plate, and cultured for 1 day. Thereto was added a compound diluted with the medium to a final concentration of 0.0003-10 μm (final DMSO concentration, 0.4%). After culture for 3 more days, WST-8 (0.16 mg/mL) was added to the culture medium and the cells were cultured for 2 hr. The absorbance at 650 nm was subtracted from the absorbance at 450 nm. The growth suppressive activity was shown by a decrease rate of the absorbance of the compound addition group to that of the compound non-addition group, and GI50 value was determined from a dose-reaction curve plotting a decrease rate of the absorbance obtained by changing the compound concentration and the compound concentrations.

HL-60 = test: Growth suppressive activity test against cancer cells (WST-8), HL-60; assay type: cell-based; conditions: Homo sapiens, 72 h, HL-60, promyelocytic leukemia, 3 days culture, read-out: cell proliferation suppressive activity GI50
Experimental: as §1, with “These cells were plated on a 96 well plate, and cultured for 1 day. Thereto was added a compound diluted with the medium to a final concentration of 0.0003-10 μm (final DMSO concentration, 0.4%). After culture for 3 more days, WST-8 (0.16 mg/mL) was added to the culture medium and the cells were cultured for 2 hr.” left out

Daudi = test: Growth suppressive activity test against cancer cells (WST-8), Daudi; assay type: cell-based; conditions: Homo sapiens, 72 h, Burkitt's lymphoma, 3 days culture, read-out: cell proliferation suppressive activity GI50
Experimental: as §1, with “These cells were plated on a 96 well plate, and cultured for 1 day. Thereto was added a compound diluted with the medium to a final concentration of 0.0003-10 μm (final DMSO concentration, 0.4%). After culture for 3 more days, WST-8 (0.16 mg/mL) was added to the culture medium and the cells were cultured for 2 hr.” left out

RPMI-8226 = test: Growth suppressive activity test against cancer cells (WST-8), RPMI-8226; assay type: cell-based; conditions: Homo sapiens, 72 h, RPMI-8226, multiple myeloma, 3 days culture, read-out: cell proliferation suppressive activity GI50
Experimental: as §1, with “These cells were plated on a 96 well plate, and cultured for 1 day. Thereto was added a compound diluted with the medium to a final concentration of 0.0003-10 μm (final DMSO concentration, 0.4%). After culture for 3 more days, WST-8 (0.16 mg/mL) was added to the culture medium and the cells were cultured for 2 hr.” left out

Kim-1 = test: Growth suppressive activity test against cancer cells (WST-8), Kim-1; assay type: cell-based; conditions: Homo sapiens, 72 h, Kim-1, hepatocellular cancer, 3 days culture, read-out: cell proliferation suppressive activity GI50
Experimental: as §1, with “These cells were plated on a 96 well plate, and cultured for 1 day. Thereto was added a compound diluted with the medium to a final concentration of 0.0003-10 μm (final DMSO concentration, 0.4%). After culture for 3 more days, WST-8 (0.16 mg/mL) was added to the culture medium and the cells were cultured for 2 hr.” left out

MOLT-4 = test: Growth suppressive activity test against cancer cells (WST-8), MOLT-4; assay type: cell-based; conditions: Homo sapiens, 72 h, MOLT-4, acute lymphoblastic leukemia, 3 days culture, read-out: cell proliferation suppressive activity GI50
Experimental: as §1, with “These cells were plated on a 96 well plate, and cultured for 1 day. Thereto was added a compound diluted with the medium to a final concentration of 0.0003-10 μm (final DMSO concentration, 0.4%). After culture for 3 more days, WST-8 (0.16 mg/mL) was added to the culture medium and the cells were cultured for 2 hr.” left out

A-2780 = test: Growth suppressive activity test against cancer cells (WST-8), A-2780; assay type: cell-based; conditions: Homo sapiens, A2780, 72 h, A-2780, ovarian cancer, 3 days culture, read-out: cell proliferation suppressive activity GI50
Experimental: as §1, with “These cells were plated on a 96 well plate, and cultured for 1 day. Thereto was added a compound diluted with the medium to a final concentration of 0.0003-10 μm (final DMSO concentration, 0.4%). After culture for 3 more days, WST-8 (0.16 mg/mL) was added to the culture medium and the cells were cultured for 2 hr.” left out

PC-3 = test: Growth suppressive activity test against cancer cells (WST-8), PC-3; assay type: cell-based; conditions: Homo sapiens, 72 h, PC-3, prostate cancer, 3 days culture, read-out: cell proliferation suppressive activity GI50
Experimental: as §1, with “These cells were plated on a 96 well plate, and cultured for 1 day. Thereto was added a compound diluted with the medium to a final concentration of 0.0003-10 μm (final DMSO concentration, 0.4%). After culture for 3 more days, WST-8 (0.16 mg/mL) was added to the culture medium and the cells were cultured for 2 hr.” left out

EBC-1 = test: Growth suppressive activity test against cancer cells (WST-8), EBC-1; assay type: cell-based; conditions: Homo sapiens, 72 h, EBC-1, non-small cell lung cancer, 3 days culture, read-out: cell proliferation suppressive activity GI50
Experimental: as §1, with “These cells were plated on a 96 well plate, and cultured for 1 day. Thereto was added a compound diluted with the medium to a final concentration of 0.0003-10 μm (final DMSO concentration, 0.4%). After culture for 3 more days, WST-8 (0.16 mg/mL) was added to the culture medium and the cells were cultured for 2 hr.” left out

Saos2 = test: Growth suppressive activity test against cancer cells (WST-8), Saos2; assay type: cell-based; conditions: Homo sapiens, SAOS-2, 72 h, Saos2, osteosarcoma, 3 days culture, read-out: cell proliferation suppressive activity GI50
Experimental: as §1, with “These cells were plated on a 96 well plate, and cultured for 1 day. Thereto was added a compound diluted with the medium to a final concentration of 0.0003-10 μm (final DMSO concentration, 0.4%). After culture for 3 more days, WST-8 (0.16 mg/mL) was added to the culture medium and the cells were cultured for 2 hr.” left out

HCT-116 = test: Growth suppressive activity test against cancer cells (WST-8), HCT-116; assay type: cell-based; conditions: Homo sapiens, 72 h, HCT-116, colorectal cancer, 3 days culture, read-out: cell proliferation suppressive activity GI50
Experimental: as §1, with “These cells were plated on a 96 well plate, and cultured for 1 day. Thereto was added a compound diluted with the medium to a final concentration of 0.0003-10 μm (final DMSO concentration, 0.4%). After culture for 3 more days, WST-8 (0.16 mg/mL) was added to the culture medium and the cells were cultured for 2 hr.” left out

[1] = MV4-11, 3 days culture, read-out: growth suppressive activity on MV4-11 GI50
[2] = Homo sapiens, 72 h, MV4-11, 3 days culture, read-out: growth suppressive activity on MV4-11 GI50
[3] = Homo sapiens, 72 h, MV4-11, chronic myeloid leukemia, 3 days culture, read-out: cell proliferation suppressive activity GI50

Compound	IC50 (BRD4) [nM]	GI50 (MV4-11; [1]) [nM]	further results
CCOC(=O)C[C@@H]1N=C(c2ccc(N(C)c3ccc(F)cc3)cc2)c2c(sc(C)c2C)-n2c(C)nnc21 [compound 11]	225	95	
COC(=O)C[C@@H]1N=C(c2ccc(NC(=O)CCc3ccccc3)cc2)c2c(sc(C)c2C)-n2c(C)nnc21 [compound 10, methyl (S)-{2,3,9-trimethyl-4-[4-(3-phenylpropionylamino)phenyl]-6H-thieno[3,2-f][1,2,4]triazolo[4,3-a][1,4]diazepin-6-yl}acetate]	47.1		GI50 (MV4-11; [2]): 7 nM
COC(=O)C[C@@H]1N=C(c2ccc(Nc3ccccc3)cc2)c2c(sc(C)c2C)-n2c(C)nnc21 [compound 8, methyl (S)-{2,3,9-trimethyl-4-(4-phenylaminophenyl)-6H-thieno[3,2-f][1,2,4]triazolo[4,3-a][1,4]diazepin-6-yl}acetate]			GI50 (MV4-11; [2]): 9 nM
COc1ncccc1NC(=O)C[C@@H]1N=C(c2ccc(Cl)cc2)c2c(sc(C)c2C)-n2c(C)nnc21 [compound 18]	147	48	
Cc1sc2c(c1C)C(c1ccc(Cl)cc1)=NC(CC(=O)Nc1cccnc1)c1nnc(C)n1-2 (stereo not drawn) [compound 12]	108	30	
CONC(=O)C[C@@H]1N=C(c2ccc(Cl)cc2)c2c(sc(C)c2C)-n2c(C)nnc21 [compound 17]	12.8	14	
Cc1sc2c(c1C)C(c1ccc(Cl)cc1)=N[C@@H](CC(=O)Nc1ccc(O)cc1)c1nnc(C)n1-2 [Compound 1, (S)-2-[4-(4-chlorophenyl)-2,3,9-trimethyl-6H-thieno[3,2-f][1,2,4]triazolo[4,3-a][1,4]diazepin-6-yl]-N-(4-hydroxyphenyl)acetamide]			GI50 (HL-60): 149 nM; GI50 (MV4-11; [3]): 60.7 nM; GI50 (Daudi): 611 nM; GI50 (RPMI-8226): 130 nM; GI50 (Kim-1): 569 nM; GI50 (MOLT-4): 80 nM; GI50 (A-2780): 619 nM; GI50 (PC-3): 1030 nM; GI50 (EBC-1): 491 nM; GI50 (Saos2): 481 nM; GI50 (HCT-116): 563 nM
CCOC(=O)C[C@@H]1N=C(c2ccc(Nc3cccnc3)cc2)c2c(sc(C)c2C)-n2c(C)nnc21 [compound 3]	54.9	20	
COC(=O)C[C@@H]1N=C(c2ccc(-c3cccc(C#N)c3)cc2)c2c(sc(C)c2C)-n2c(C)nnc21 [Compound 2, methyl (S)-{4-(3′-cyanobiphenyl-4-yl)-2,3,9-trimethyl-6H-thieno[3,2-f][1,2,4]triazolo[4,3-a][1,4]diazepin-6-yl}acetate]	121		GI50 (HL-60): 7 nM; GI50 (MV4-11; [2]): 19 nM; GI50 (MV4-11; [3]): 19 nM; GI50 (Daudi): 67.4 nM; GI50 (RPMI-8226): 69.4 nM; GI50 (Kim-1): 104 nM; GI50 (MOLT-4): 106 nM; GI50 (A-2780): 130 nM; GI50 (PC-3): 199 nM; GI50 (EBC-1): 207 nM; GI50 (Saos2): 269 nM; GI50 (HCT-116): 356 nM
Cc1sc2c(c1C)C(c1ccc(Cl)cc1)=NC(CC(=O)NCCO)c1nnc(C)n1-2 (stereo not drawn) [compound 14]		42	
COC(=O)C[C@@H]1N=C(c2ccc(Cl)cc2)c2c(sc(C)c2C)-n2c(C)nnc21 [compound 6]	18.2	26	
COC(=O)C[C@@H]1N=C(c2ccc(-c3ccc(OC)cc3)cc2)c2c(sc(CO)c2C)-n2c(C)nnc21 [compound 7]	113	55	
CNC(=O)CC1N=C(c2ccc(Cl)cc2)c2c(sc(C)c2C)-n2c(C)nnc21 (stereo not drawn) [compound 13]	17.3	22	
COC(=O)C[C@@H]1N=C(c2ccc(Nc3c(F)cc(F)cc3F)cc2)c2c(sc(CO)c2C)-n2c(C)nnc21 [compound 4]	77.2	95	
COc1ccc(NC(=O)C[C@@H]2N=C(c3ccc(Cl)cc3)c3c(sc(C)c3C)-n3c(C)nnc32)cn1 [compound 16]	116	28	
COC(=O)C[C@@H]1N=C(c2ccc(Cl)cc2)c2c(sc(Cl)c2C)-n2c(C)nnc21 [compound 5]	54.2	73	
Cc1sc2c(c1C)C(c1ccc(Cl)cc1)=NC(CC(=O)Nc1ccc(N)cc1)c1nnc(C)n1-2 (stereo not drawn) [compound 15]	120	34	
COC(=O)C[C@@H]1N=C(c2ccc(NCc3ccccc3)cc2)c2c(sc(C)c2C)-n2c(C)nnc21 [compound 9]	73.6	39	
